{"source": "patent US8691218B2", "about": "“Vermin extermination using lysozyme, salt or biological fragment thereof, or lysozyme-related peptide as an egg recognition pheromone” (National University Corporation Okayama University, priority 2007, dated 2014)", "tested_on": "Reticulitermes speratus workers (worker termites)", "experiment": "egg recognition activity: conveyance of coated mimetic eggs (glass beads) into the egg mass in a petri dish", "type": "in vivo", "conditions": "lysozyme samples tested on termites", "protocol": "Egg recognition activities of a termite egg extract, lysozyme purified from the termite egg extract, a termite egg extract degraded by proteinase, egg white lysozyme, cellulase, a mixture of egg white lysozyme and cellulase, and 30% glycerin aqueous solution as a control were investigated by using Reticulitermes speratus workers (worker termites).\nEach test samples was prepared as follows.\n800 μL of ultrapure water was added to 400 mg of Reticulitermes speratus eggs in an Eppendorf tube, and homogenized, and subjected to ultrasonic treatment for 5 minutes, and centrifugation was performed at 15,000 rpm for 30 minutes. The supernatant was lyophilized, and 5.0 mg of the lyophilized powder was dissolved in 100 μL of 30% glycerin aqueous solution (termite egg extract). The termite egg extract prepared in the same manner as described above was purified by BioRex 70 (BioRad Laboratories, CA, USA) cation-exchange resin, and further, lysozyme fractions were isolated by Q-1 column chromatography (BioRad Laboratories, CA, USA) and Methyl HIC column chromatography (BioRad Laboratories, CA, USA), and 1.0 mg of lyophilized powder thereof was dissolved in 20 μL of 30% glycerin aqueous solution (lysozyme isolated from termite egg extract). […]"}
{"substance": "lysozyme derived from chicken egg white: egg white lysozyme (SIGMA) dissolved in 30% glycerin aqueous solution", "values": [{"measurement": "egg recognition activity of termites", "result": "high activity"}]}
